Laboratory results reported in PMC2033546, “Effects of somatostatin analogue RC-160 and bombesin/gastrin-releasing peptide antagonists on the growth of human small-cell and non-small-cell lung carcinomas in nude mice” (British Journal of Cancer, 1994).
Where no end group is shown, it is not given here. [ ]: non-standard residue; d: D form.

What was measured:
[1] = tested on: human SCLC cell line NCI-H69; assay: Growth of H69 SCLC xenografts in nude mice; type: in vivo, human (xenograft in male athymic nude mice)
Source text: (§1) Br. J. Cancer (1994). 70, 886 892 ? Macmillan Press Ltd.. […] Bombesin GRP antagonists. […] Lung carcinoma is the leading cause of cancer-related deaths in the western world. It is estimated that in 1992 there were approximately 168,000 new cases of lung cancer in the US and that about 146,000 deaths occurred from this disease (Boring et al., 1992). […] The growth factors such as bombesin/gastrin-releasing pep- tide (GRP), epidermal growth factor, (EGF), transforming growth factor a (TGF-x) and insulin-like growth factor I(IGF-I) appear to play a role in the proliferation and pro- gression of lung cancer (Cuttitta et al., 1985; Veale et al., 1987; Minuto et al., 1988; Siegfried & Owens, 1988; Macaulay et al., 1990; Tateishi et al., 1991; Damstrup et al., 1992; Sethi & Rozengurt, 1992; Rabiasz et al., 1992; Moody & Cuttitta, 1993). […] Tpi is 2,3,4,9-tetrahydro- Correspondence: A.V. Schally (151). VA Medical Center, 1601 Per- dido Street. New Orleans, LA 70146. USA. Received 1 March 1994; and in revised form 5 July 1994. Br. J. Cancer (1994), 70, 886-892 C Macmillan Press Ltd., 1994 PEPTIDE ANALOGUES IN LUNG CANCER 8U7 lH-pyrido [3,4bjindol-3-carboxylic acid, a conformationally constrained secondary amine derivate of tryptophan and Tac is thiazolidine-4-carboxylic acid. […] Animals Male athymic NCr nulmu nude mice, approximately 6 weeks old on arrival, were obtained from the NCI (Bethesda, MD, USA) and maintained under pathogen-limited conditions. Cell lines The human SCLC cell line NCI-H69, was obtained from the American Type Cell Culture (ATCC), Rockville, MD, USA and the non-SCLC cell line NCI-H157, from Dr H. Oie, NCI-Navy Medical Oncology Branch, Bethesda, MD, USA. These cell lines were cultured in RPMI-1640 medium supple- mented with 4 mM L-glutamine, 50 units ml-I penicilln G sodium, SOigml-' streptomycin sulphate, 0.125pgml-' amphotericin B and 10% fetal bovine serum at 3TC in a humidified 95% air/5% carbon dioxide atmosphere. CeLs were passaged weekly and routinely monitored for myco- plasma contamination using a detection kit (Boehringer- Mannheim, Mannheim, Germany). All culture media com- ponents were purchased from Gibco (Grand Island, NY, USA). Receptor assays Preparation of membranes for receptor studies was described previously (Halmos et al., 1993). Iodinated EGF and IGF-I were purchased from Amersham (Arlington Heights, IL, USA). Radioiodination of other peptides and receptor bind- ing of EGF, IGF-I, somatostatin and bombesin/GRP were performed as previously described (Srkalovic et al., 1989; Szepeshazi et al., 1992). Complete displacement assays on tumour membranes were done only once because of the shortage of tumour material. The LIGAND PC computerised curve-fitting programme of Munson and Rodbard (1980) was used to determine the types of receptor binding, dissociation constant (Kd) values, and the maximal binding capacity (BDj) of receptors. In order to determine the specificity of the binding sites for radiolabelled EGF, IGF-I, somatostatin and bombesin to lung cancer membranes, various structuraly related and unrelated peptides were tested for their ability to inhibit the binding of the tracers. Histological procedure The histological procedures were the same as described previously (Szepeshazi et al., 1991, 1992). The number of mitotic and apoptotic cells per 1,000 cells was determined, and the percentage area of necrosis in tumour sections was examined using the point-counting method (Szepeshazi et al., 1991, 1992), in which the crossing points of an ocular net that coincide with necrosis in various sections are counted. Radiommunoassays Serum levels of growth hormone were determined by double- antibody radioimmunoassay (RIA) using materials supplied by the National Hormone and Pituitary Program of the National Institute of Diabetes and Digestive and Kidney Diseases (NIDDK).

[2] = tested on: non-SCLC cell line NCI-H157; assay: Growth of H157 non-SCLC xenografts in nude mice; type: in vivo, human (xenograft in male athymic nude mice); conditions: RC-160 100 µg/day, RC-3095 20 µg/day
Source text: as §1

[3] = Serum gastrin radioimmunoassay in nude mice; type: in vivo; conditions: both experiments, after chronic treatment, vs controls
[4] = tested on: Bombesin/GRP receptors in membranes of SCLC H69 tumours; assay: Bombesin/GRP receptor binding on H69 tumour membranes after in vivo treatment; parameters: species or system human; conditions: Table IV, Experiment I (SCLC-H69); tumour membranes after in vivo treatment; control 420; done once
Source text: as §1, with “In order to determine the specificity of the binding sites for radiolabelled EGF, IGF-I, somatostatin and bombesin to lung cancer membranes, various structuraly related and unrelated peptides were tested for their ability to inhibit the binding of the tracers. Histological procedure The histological procedures were the same as described previously (Szepeshazi et al., 1991, 1992).” left out

[5] = Serum growth hormone (GH) radioimmunoassay in nude mice; type: in vivo
Source text: Br. J. Cancer (1994). 70, 886 892 ? Macmillan Press Ltd.. […] Bombesin GRP antagonists. […] Lung carcinoma is the leading cause of cancer-related deaths in the western world. It is estimated that in 1992 there were approximately 168,000 new cases of lung cancer in the US and that about 146,000 deaths occurred from this disease (Boring et al., 1992). […] CeLs were passaged weekly and routinely monitored for myco- plasma contamination using a detection kit (Boehringer- Mannheim, Mannheim, Germany). […] The number of mitotic and apoptotic cells per 1,000 cells was determined, and the percentage area of necrosis in tumour sections was examined using the point-counting method (Szepeshazi et al., 1991, 1992), in which the crossing points of an ocular net that coincide with necrosis in various sections are counted. Radiommunoassays Serum levels of growth hormone were determined by double- antibody radioimmunoassay (RIA) using materials supplied by the National Hormone and Pituitary Program of the National Institute of Diabetes and Digestive and Kidney Diseases (NIDDK).

[6] = tested on: IGF-I receptors in membranes of SCLC H69 tumours; assay: IGF-I receptor binding on H69 tumour membranes after in vivo treatment; parameters: species or system human; conditions: Table IV, Experiment I (SCLC-H69), control 294, done once
Source text: as §1, with “Receptor assays Preparation of membranes for receptor studies was described previously (Halmos et al., 1993). Iodinated EGF and IGF-I were purchased from Amersham (Arlington Heights, IL, USA). Radioiodination of other peptides and receptor bind- ing of EGF, IGF-I, somatostatin and bombesin/GRP were performed as previously described (Srkalovic et al., 1989; Szepeshazi et al., 1992). Complete displacement assays on tumour membranes were done only once because of the shortage of tumour material. The LIGAND PC computerised curve-fitting programme of Munson and Rodbard (1980) was used to determine the types of receptor binding, dissociation constant (Kd) values, and the maximal binding capacity (BDj) of receptors. In order to determine the specificity of the binding sites for radiolabelled EGF, IGF-I, somatostatin and bombesin to lung cancer membranes, various structuraly related and unrelated peptides were tested for their ability to inhibit the binding of the tracers. Histological procedure The histological procedures were the same as described previously (Szepeshazi et al., 1991, 1992).” left out

[7] = tested on: MIA PaCa-2 human pancreatic cancer cell line; conditions: ref Liebow et al., 1989; cited from earlier work
Source text: (§2) Br. J. Cancer (1994). 70, 886 892 ? Macmillan Press Ltd..

[8] = tested on: LNCaP prostatic cancer cells; conditions: LNCaP cells in culture; ref Gattani et al., 1990; cited from earlier work
Source text: as §2

[9] = tested on: IGF-I receptors in membranes of non-SCLC H157 tumours; assay: IGF-I receptor binding on H157 tumour membranes after in vivo treatment; parameters: species or system human
Source text: as §1, with “Receptor assays Preparation of membranes for receptor studies was described previously (Halmos et al., 1993). Iodinated EGF and IGF-I were purchased from Amersham (Arlington Heights, IL, USA). Radioiodination of other peptides and receptor bind- ing of EGF, IGF-I, somatostatin and bombesin/GRP were performed as previously described (Srkalovic et al., 1989; Szepeshazi et al., 1992). Complete displacement assays on tumour membranes were done only once because of the shortage of tumour material. The LIGAND PC computerised curve-fitting programme of Munson and Rodbard (1980) was used to determine the types of receptor binding, dissociation constant (Kd) values, and the maximal binding capacity (BDj) of receptors. In order to determine the specificity of the binding sites for radiolabelled EGF, IGF-I, somatostatin and bombesin to lung cancer membranes, various structuraly related and unrelated peptides were tested for their ability to inhibit the binding of the tracers. Histological procedure The histological procedures were the same as described previously (Szepeshazi et al., 1991, 1992).” left out

[10] = tested on: EGF receptors in membranes of SCLC H69 tumours; assay: EGF receptor binding on H69 tumour membranes after in vivo treatment; parameters: species or system human
Source text: as §1, with “In order to determine the specificity of the binding sites for radiolabelled EGF, IGF-I, somatostatin and bombesin to lung cancer membranes, various structuraly related and unrelated peptides were tested for their ability to inhibit the binding of the tracers. Histological procedure The histological procedures were the same as described previously (Szepeshazi et al., 1991, 1992).” left out

[11] = tested on: Somatostatin receptors in membranes of SCLC H69 tumours; assay: Somatostatin receptor binding on H69 tumour membranes after in vivo treatment; parameters: species or system human
Source text: as §1, with “In order to determine the specificity of the binding sites for radiolabelled EGF, IGF-I, somatostatin and bombesin to lung cancer membranes, various structuraly related and unrelated peptides were tested for their ability to inhibit the binding of the tracers. Histological procedure The histological procedures were the same as described previously (Szepeshazi et al., 1991, 1992).” left out

[12] = H69 SCLC xenografts, as compared with control group, RC-160 100 µg, RC-3950-II 20 µg per animal per day s.c. peritumorally, 5 weeks

## [dF]CY[dW]KVCW-NH2 (cysteine pairing not given here) [RC-160, Somatostatin analogue RC-160]
[1]; [12]
  Reduction in tumour volumes: more than 70%
  Reduction in tumour weights: more than 70%
[1]; SCLC H69 tumours, P<0.01, from start of the experiment
  Time from which tumour growth was significantly inhibited: 14 days
[1]; Table I, Experiment I (SCLC-H69), 5 weeks s.c. peritumoral, RC-160 100 µg/day, RC-3440, RC-3095, RC-3950-II 20 µg/day per animal, control 249.7 ? 182.3, means ? s.d., ten animals per group, *P<0.05 vs control
  Tumour volume, final: 66.0 26.5* (mm)r
[1]; Table I, Experiment I (SCLC-H69), 5 weeks s.c. peritumoral, RC-160 100 µg/day, antagonists 20 µg/day per animal, control 0.27 ? 0.19, means ? s.d., *P<0.05 vs control
  Tumour weight: 0.058 0.04* g
[1]; Table I, Experiment I (SCLC-H69), 5 weeks, RC-160 100 µg/day, antagonists 20 µg/day per animal s.c., control 7.5
  Tumour doubling time: 12.7 days
[1]; s.c. peritumorally, RC-160 100 µg, bombesin/GRP antagonists 20 µg per animal per day, 5 weeks
  Growth of H69 SCLC tumours (in words): inhibited the growth of H69 SCLC xenografts
[2]; 4 weeks s.c., SB-75 100 µg/day per animal, vs control
  Growth of H157 non-SCLC tumours (in words): significantly reduced
[2]; Table I, Experiment II (non-SCLC H157), 4 weeks s.c. peritumoral, SB-75 100 µg/day per animal, control 1580.3 ? 455.7, means ? s.d., ten animals per group, *P<0.05 vs control
  Tumour volume, final: 291.0 207.8* (mm)r
[2]; Table I, Experiment II (non-SCLC H157), 4 weeks s.c., SB-75 100 µg/day, control 1.9 ? 0.3, means ? s.d., *P<0.05 vs control
  Tumour weight: 0.64 0.3* g
[2]; Table I, Experiment II (non-SCLC H157), 4 weeks s.c., SB-75 100 µg/day, control 3.88
  Tumour doubling time: 6.06 days
[3]
  Serum gastrin levels (in words): significantly decreased serum growth hormone and gastrin levels
[4]
  Bombesin/GRP maximal binding capacity (Bmax): 435 fmol mg-'protein
[5]; both experiments, after chronic treatment, vs controls
  Serum GH levels (in words): significantly decreased serum growth hormone and gastrin levels
[5]; mice treated with RC-160 as compared with control mice
  Decrease in serum GH levels: about 48%
[6]
  IGF-I maximal binding capacity (Bmax): 176 fmol mg' protein
[7]
  Effect on EGF-stimulated cell growth (in words): reversed the stimulatory effect of EGF
  Effect on EGF-stimulated phosphorylation of the tyrosine kinase domain of the EGF receptors (in words): reversed the stimulatory effect of EGF
[8]
  Effect on [3H]thymidine incorporation (in words): inhibitory effect
[9]; Table IV, Experiment II (non-SCLC H157), tumour membranes after in vivo treatment, control 257, done once
  IGF-I maximal binding capacity (Bmax): 129 fmol mg' protein
[9]; after in vivo treatment
  IGF-I binding sites on H157 tumours (in words): decreased
[10]; Table IV, Experiment I (SCLC-H69), tumour membranes after in vivo treatment, control 278, ten-point displacement in triplicate tubes, done once
  EGF maximal binding capacity (Bmax): 174 fmol mg' protein
[10]; after in vivo treatment
  EGF receptors on H69 tumours (in words): down-regulated
[11]; Table IV, Experiment I (SCLC-H69), tumour membranes after in vivo treatment, control 450, done once
  Somatostatin maximal binding capacity (Bmax): 570 fmol mg-'protein
[11]; after in vivo treatment
  Binding capacity of receptors for somatostatin on H69 tumours (in words): increased the binding capacity of receptors for somatostatin
